Tested on: MV-4-11 cells
Test: Gene expression microarray analysis (Affymetrix PrimeView) and GSEA
Type: cell-based, human
Set-up: RFU PODN (11730768_x_at) / Fold change /veh PODN (11730768_x_at) / RFU LINC00158 (11744669_a_at) / Fold change /veh LINC00158 (11744669_a_at) / RFU DUSP10 (11751237_a_at) / Fold change /veh DUSP10 (11751237_a_at) / RFU ID3 (11757404_x_at) / Fold change /veh ID3 (11757404_x_at) / RFU PLEKHG5 (11737974_s_at) / Fold change /veh PLEKHG5 (11737974_s_at) / RFU LRRC4B (11730491_at) / Fold change /veh LRRC4B (11730491_at) / RFU GIMAP4 (11747438_a_at) / Fold change /veh GIMAP4 (11747438_a_at) / RFU KRT8 (11758183_x_at) / Fold change /veh KRT8 (11758183_x_at) / RFU CNN1 (11734310_a_at) / Fold change /veh CNN1 (11734310_a_at) / RFU VPS37D (11726825_at) / Fold change /veh VPS37D (11726825_at) / RFU C10orf10 (11716522_x_at) / Fold change /veh C10orf10 (11716522_x_at) / RFU KIR2DL2 /// KIR2DL4 /// KIR2DL5A /// KIR2DL5B /// KIR2DS1 /// KIR2DS2 /// KIR2DS3 /// KIR2DS4 /// KIR3DL3 /// KIR3DL3 /// KIR3DS1 (11738374_at) / Fold change /veh KIR2DL2 /// KIR2DL4 /// KIR2DL5A /// KIR2DL5B /// KIR2DS1 /// KIR2DS2 /// KIR2DS3 /// KIR2DS4 /// KIR3DL3 /// KIR3DL3 /// KIR3DS1 (11738374_at) / RFU C1QL1 (11718748_at) / Fold change /veh C1QL1 (11718748_at) / RFU TMPRSS4 (11747572_a_at) / Fold change /veh TMPRSS4 (11747572_a_at) / RFU HAMP (11756126_x_at) / Fold change /veh HAMP (11756126_x_at) / RFU RNFT2 (11725882_a_at) / Fold change /veh RNFT2 (11725882_a_at) / RFU NR4A2 (11747474_a_at) / Fold change /veh NR4A2 (11747474_a_at) / RFU ABCC12 (11746883_a_at) / Fold change /veh ABCC12 (11746883_a_at) / RFU TMEM136 (11760407_x_at) / Fold change /veh TMEM136 (11760407_x_at) / RFU CLDN22 /// WWC2 (11732394_at) / Fold change /veh CLDN22 /// WWC2 (11732394_at) / RFU HLA-DPB1 (11760878_x_at) / Fold change /veh HLA-DPB1 (11760878_x_at) / RFU SPINT1 (11716480_a_at) / Fold change /veh SPINT1 (11716480_a_at) / RFU GAP43 (11754022_s_at) / Fold change /veh GAP43 (11754022_s_at) / RFU A4GNT (11735810_at) / Fold change /veh A4GNT (11735810_at) / RFU PRB3 (11715151_x_at) / Fold change /veh PRB3 (11715151_x_at) / RFU TUBB4B (11761932_at) / Fold change /veh TUBB4B (11761932_at) / RFU CAPN14 (11732068_a_at) / Fold change /veh CAPN14 (11732068_a_at) / RFU TMCC2 (11721928_a_at) / Fold change /veh TMCC2 (11721928_a_at) / RFU IRGQ (11745062_a_at) / Fold change /veh IRGQ (11745062_a_at) / RFU FAM174B (11720279_a_at) / Fold change /veh FAM174B (11720279_a_at) / RFU TMPRSS4 (11748680_a_at) / Fold change /veh TMPRSS4 (11748680_a_at) / RFU FAM212B (11763350_a_at) / Fold change /veh FAM212B (11763350_a_at) / RFU PLEKHG5 (11743358_a_at) / Fold change /veh PLEKHG5 (11743358_a_at) / RFU ZSCAN30 (11745921_a_at) / Fold change /veh ZSCAN30 (11745921_a_at) / RFU CMKLR1 (11741424_a_at) / Fold change /veh CMKLR1 (11741424_a_at) / RFU LOC101060620 /// MAPK8IP1 (11723275_at) / Fold change /veh LOC101060620 /// MAPK8IP1 (11723275_at) / RFU SPTSSB (11747773_x_at) / Fold change /veh SPTSSB (11747773_x_at) / RFU PRSS12 (11739890_at) / Fold change /veh PRSS12 (11739890_at) / RFU BIN1 (11741810_x_at) / Fold change /veh BIN1 (11741810_x_at) / RFU WNT11 (11732464_a_at) / Fold change /veh WNT11 (11732464_a_at) / RFU C10orf10 (11716521_a_at) / Fold change /veh C10orf10 (11716521_a_at) / RFU C5orf56 (11738089_at) / Fold change /veh C5orf56 (11738089_at) / RFU CYB561 (11721691_x_at) / Fold change /veh CYB561 (11721691_x_at) / RFU ANKRD19P (11752326_a_at) / Fold change /veh ANKRD19P (11752326_a_at) / RFU OR2T12 /// OR2T33 /// OR2T8 (11738714_s_at) / Fold change /veh OR2T12 /// OR2T33 /// OR2T8 (11738714_s_at) / RFU VCAN (11748164_a_at) / Fold change /veh VCAN (11748164_a_at) / RFU JSRP1 (11732532_at) / Fold change /veh JSRP1 (11732532_at) / RFU KRTAP10-11 (11738290_x_at) / Fold change /veh KRTAP10-11 (11738290_x_at) / RFU MYO3A (11730013_a_at) / Fold change /veh MYO3A (11730013_a_at) / RFU EBF3 (11725865_a_at) / Fold change /veh EBF3 (11725865_a_at) / RFU CAMK2N1 (11719241_x_at) / Fold change /veh CAMK2N1 (11719241_x_at) / RFU C5orf56 (11738088_a_at) / Fold change /veh C5orf56 (11738088_a_at) / RFU OLFML3 (11715873_a_at) / Fold change /veh OLFML3 (11715873_a_at) / RFU LOC100653217 /// NTM (11731650_a_at) / Fold change /veh LOC100653217 /// NTM (11731650_a_at) / RFU MAPK11 (11762145_a_at) / Fold change /veh MAPK11 (11762145_a_at) / RFU FIZ1 (11724087_x_at) / Fold change /veh FIZ1 (11724087_x_at) / RFU OASL (11726364_x_at) / Fold change /veh OASL (11726364_x_at) / RFU SOX15 (11748057_x_at) / Fold change /veh SOX15 (11748057_x_at) / RFU CD79A (11719716_a_at) / Fold change /veh CD79A (11719716_a_at) / RFU HIST1H1D (11736915_at) / Fold change /veh HIST1H1D (11736915_at) / RFU CASKIN2 (11723855_a_at) / Fold change /veh CASKIN2 (11723855_a_at) / RFU LOC730098 (11760151_x_at) / Fold change /veh LOC730098 (11760151_x_at) / RFU OR4N2 (11742367_at) / Fold change /veh OR4N2 (11742367_at) / RFU PRRT2 (11749266_a_at) / Fold change /veh PRRT2 (11749266_a_at) / RFU SNX32 (11753110_a_at) / Fold change /veh SNX32 (11753110_a_at) / RFU CDHR5 (11726645_a_at) / Fold change /veh CDHR5 (11726645_a_at) / RFU RCAN1 (11760418_a_at) / Fold change /veh RCAN1 (11760418_a_at) / RFU FAM167A (11723789_a_at) / Fold change /veh FAM167A (11723789_a_at) / RFU FAM26E (11764081_at) / Fold change /veh FAM26E (11764081_at) / RFU ISYNA1 (11749810_s_at) / Fold change /veh ISYNA1 (11749810_s_at) / RFU ACY1 (11761880_at) / Fold change /veh ACY1 (11761880_at) / RFU 11764098_at / Fold change /veh 11764098_at / RFU SAMD14 (11745864_x_at) / Fold change /veh SAMD14 (11745864_x_at) / RFU NPB (11741838_a_at) / Fold change /veh NPB (11741838_a_at) / RFU TMPRSS6 (11731388_a_at) / Fold change /veh TMPRSS6 (11731388_a_at) / RFU KRTAP10-2 (11738614_at) / Fold change /veh KRTAP10-2 (11738614_at) / RFU ARHGAP8 /// PRR5-ARHGAP8 (11727945_x_at) / Fold change /veh ARHGAP8 /// PRR5-ARHGAP8 (11727945_x_at) / RFU KRTAP5-7 /// NADSYN1 (11734609_at) / Fold change /veh KRTAP5-7 /// NADSYN1 (11734609_at) / RFU RASL12 (11751679_a_at) / Fold change /veh RASL12 (11751679_a_at) / RFU CDKN2B (11736163_a_at) / Fold change /veh CDKN2B (11736163_a_at) / RFU PRF1 (11729649_at) / Fold change /veh PRF1 (11729649_at) / RFU, ZNF638 /// ZNF638-IT1 / Fold change vs veh, ZNF638 /// ZNF638-IT1 / RFU, PANK3 / Fold change vs veh, PANK3 / RFU, SH3YL1 / Fold change vs veh, SH3YL1 / RFU, ZEB2 / Fold change vs veh, ZEB2 / RFU, NRIP1 / Fold change vs veh, NRIP1 / RFU, PTTG1IP / Fold change vs veh, PTTG1IP / RFU, CAPN2 / Fold change vs veh, CAPN2 / RFU, MED14 / Fold change vs veh, MED14 / RFU, SNORA58 / Fold change vs veh, SNORA58 / RFU, C1orf63 / Fold change vs veh, C1orf63 / RFU, LRRFIP1 / Fold change vs veh, LRRFIP1 / RFU, NDUFAF7 / Fold change vs veh, NDUFAF7 / RFU, SLC12A2 / Fold change vs veh, SLC12A2 / RFU, IBTK / Fold change vs veh, IBTK / RFU, ESF1 / Fold change vs veh, ESF1 / Fold change vs veh, TMEM50B / RFU, TAOK1 / Fold change vs veh, TAOK1 / RFU, ACBD3 / Fold change vs veh, ACBD3 / RFU, TMA16 / Fold change vs veh, TMA16 / RFU, RWDD3 / Fold change vs veh, RWDD3 / RFU, BCAT1 / Fold change vs veh, BCAT1 / RFU, EDEM3 / Fold change vs veh, EDEM3 / RFU, TMEM33 / Fold change vs veh, TMEM33 / RFU, WDR75 / Fold change vs veh, WDR75 / RFU, AHCTF1 / Fold change vs veh, AHCTF1 / RFU, TFRC / Fold change vs veh, TFRC / RFU, ZDHHC17 / Fold change vs veh, ZDHHC17 / RFU, NOM1 / Fold change vs veh, NOM1 / RFU, ARL8B / Fold change vs veh, ARL8B / RFU, ZBTB11 / Fold change vs veh, ZBTB11 / RFU, TAMM41 / Fold change vs veh, TAMM41 / RFU, KIAA1704 /// LOC100996395 / Fold change vs veh, KIAA1704 /// LOC100996395 / RFU, ING1 / Fold change vs veh, ING1 / RFU, TRMT61B / Fold change vs veh, TRMT61B / RFU, FUBP3 / Fold change vs veh, FUBP3 / RFU, TP53 / Fold change vs veh, TP53 / RFU, TNKS2 / Fold change vs veh, TNKS2 / RFU, ZFP14 / Fold change vs veh, ZFP14 / RFU, ACTR2 / Fold change vs veh, ACTR2 / RFU, PPP3R1 / Fold change vs veh, PPP3R1 / RFU, PIK3R1 / Fold change vs veh, PIK3R1 / RFU, HNRNPA1 / Fold change vs veh, HNRNPA1 / RFU, RNF170 / Fold change vs veh, RNF170 / RFU, ZNF28 / Fold change vs veh, ZNF28 / RFU, RNGTT / Fold change vs veh, RNGTT / RFU, OGT / Fold change vs veh, OGT / RFU, BRD1 / Fold change vs veh, BRD1 / RFU, MARS / Fold change vs veh, MARS / RFU, ZNF655 / Fold change vs veh, ZNF655 / RFU, FAHD1 / Fold change vs veh, FAHD1 / RFU, BDP1 / Fold change vs veh, BDP1 / RFU, LRRCC1 / Fold change vs veh, LRRCC1 / RFU, ARID1A / Fold change vs veh, ARID1A / RFU, ZNF146 / Fold change vs veh, ZNF146 / RFU, ZNF330 / Fold change vs veh, ZNF330 / RFU, GPN3 / Fold change vs veh, GPN3 / RFU, C9orf123 / Fold change vs veh, C9orf123 / RFU, N4BP2L2 / Fold change vs veh, N4BP2L2 / RFU, ARFIP1 / Fold change vs veh, ARFIP1 / RFU, FAM179B / Fold change vs veh, FAM179B / RFU, BCL10 / Fold change vs veh, BCL10 / RFU, UHRF1BP1L / Fold change vs veh, UHRF1BP1L / RFU, BET1 / Fold change vs veh, BET1 / RFU, CNOT2 / Fold change vs veh, CNOT2 / RFU, ZNF268 / Fold change vs veh, ZNF268 / Fold change vs veh, ZNF507 / RFU, DGCR2 / Fold change vs veh, DGCR2 / RFU, WDSUB1 / Fold change vs veh, WDSUB1 / Fold change vs veh, HSP90B1 /// MIR3652 / RFU, ADSS / Fold change vs veh, ADSS / RFU, GK / Fold change vs veh, GK / RFU, ZNF148 / Fold change vs veh, ZNF148 / RFU, TAF9 / Fold change vs veh, TAF9 / RFU, SLC1A5 / Fold change vs veh, SLC1A5 / RFU, SLMO2 / Fold change vs veh, SLMO2 / RFU, ABCC4 / Fold change vs veh, ABCC4 / RFU, LOC101060439 /// RAP1B / Fold change vs veh, LOC101060439 /// RAP1B / RFU, RFX7 / Fold change vs veh, RFX7 / RFU, GTPBP10 / Fold change vs veh, GTPBP10 / RFU, CNEP1R1 / Fold change vs veh, CNEP1R1 / RFU, BIVM-ERCC5 /// ERCC5 / Fold change vs veh, BIVM-ERCC5 /// ERCC5 / RFU, ILF3 / Fold change vs veh, ILF3 / RFU 11762660_at / Fold change /veh 11762660_at / RFU VCAN (11757783_s_at) / Fold change /veh VCAN (11757783_s_at) / RFU DDX43 (11728927_at) / Fold change /veh DDX43 (11728927_at) / RFU KRT8 (11758188_x_at) / Fold change /veh KRT8 (11758188_x_at) / RFU NKD1 (11759106_at) / Fold change /veh NKD1 (11759106_at) / RFU SRD5A1 (11742802_a_at) / Fold change /veh SRD5A1 (11742802_a_at) / RFU TPSAB1 /// TPSB2 (11721975_s_at) / Fold change /veh TPSAB1 /// TPSB2 (11721975_s_at) / RFU GSTM3 (11746129_a_at) / Fold change /veh GSTM3 (11746129_a_at) / RFU IL23R (11737362_x_at) / Fold change /veh IL23R (11737362_x_at) / RFU TMEM51 (11727254_a_at) / Fold change /veh TMEM51 (11727254_a_at) / RFU PIWIL2 (11732686_x_at) / Fold change /veh PIWIL2 (11732686_x_at) / RFU ORM1 (11744905_x_at) / Fold change /veh ORM1 (11744905_x_at) / RFU CCDC152 (11743942_at) / Fold change /veh CCDC152 (11743942_at) / RFU ECM1 (11717891_a_at) / Fold change /veh ECM1 (11717891_a_at) / RFU IL23R (11748794_a_at) / Fold change /veh IL23R (11748794_a_at) / RFU TNFAIP8L3 (11732012_x_at) / Fold change /veh TNFAIP8L3 (11732012_x_at) / RFU MBOAT4 (11741988_at) / Fold change /veh MBOAT4 (11741988_at) / RFU 11764193_at / Fold change /veh 11764193_at / RFU TMEM53 (11763286_at) / Fold change /veh TMEM53 (11763286_at) / RFU MAGEB2 (11727129_at) / Fold change /veh MAGEB2 (11727129_at) / RFU TMEM200A (11744735_a_at) / Fold change /veh TMEM200A (11744735_a_at) / RFU CCDC152 (11751479_a_at) / Fold change /veh CCDC152 (11751479_a_at) / RFU FAM211A (11726209_a_at) / Fold change /veh FAM211A (11726209_a_at) / RFU RGS16 (11746705_a_at) / Fold change /veh RGS16 (11746705_a_at) / RFU VCAN (11755009_s_at) / Fold change /veh VCAN (11755009_s_at) / RFU RHOB (11743442_s_at) / Fold change /veh RHOB (11743442_s_at) / RFU RGS16 (11720943_a_at) / Fold change /veh RGS16 (11720943_a_at) / RFU RGS16 (11720944_at) / Fold change /veh RGS16 (11720944_at) / RFU, VPS4B / Fold change vs veh, VPS4B / RFU, CREB1 / Fold change vs veh, CREB1 / RFU, DNAJC13 / Fold change vs veh, DNAJC13 / RFU, GNAQ / Fold change vs veh, GNAQ / RFU, CDK5R1 / Fold change vs veh, CDK5R1 / RFU, ZRANB3 / Fold change vs veh, ZRANB3 / RFU, CUL4A / Fold change vs veh, CUL4A / RFU, CCNY / Fold change vs veh, CCNY / RFU, UFL1 / Fold change vs veh, UFL1 / RFU, COG3 / Fold change vs veh, COG3 / RFU, DIAPH2 / Fold change vs veh, DIAPH2 / RFU, SKA2 / Fold change vs veh, SKA2 / RFU, AFF3 / Fold change vs veh, AFF3 / RFU, LMF1 / Fold change vs veh, LMF1 / RFU, IPO11 / Fold change vs veh, IPO11 / RFU, DFFB / Fold change vs veh, DFFB / RFU, FOXP1 / Fold change vs veh, FOXP1 / RFU, CARD8 / Fold change vs veh, CARD8 / RFU, STRN3 / Fold change vs veh, STRN3 / RFU, ADK / Fold change vs veh, ADK / RFU, RASSF2 / Fold change vs veh, RASSF2 / RFU, WIPF1 / Fold change vs veh, WIPF1 / RFU, LARP1B / Fold change vs veh, LARP1B / RFU, RASA1 / Fold change vs veh, RASA1 / RFU, RB1 / Fold change vs veh, RB1 / RFU, PPFIA1 / Fold change vs veh, PPFIA1 / RFU, MAT2A / Fold change vs veh, MAT2A / RFU, CCT5 / Fold change vs veh, CCT5 / RFU, WDR92 / Fold change vs veh, WDR92 / RFU, CUX1 / Fold change vs veh, CUX1 / RFU, TTC7A / Fold change vs veh, TTC7A / RFU, TMEM135 / Fold change vs veh, TMEM135 / RFU, DEPTOR / Fold change vs veh, DEPTOR / RFU, CPM / Fold change vs veh, CPM / RFU, DNAJB6 / Fold change vs veh, DNAJB6 / RFU, CACNA2D3 / Fold change vs veh, CACNA2D3 / RFU, DTX4 / Fold change vs veh, DTX4 / RFU, TFCP2 / Fold change vs veh, TFCP2 / RFU, GMCL1 /// GMCL1P1 / Fold change vs veh, GMCL1 /// GMCL1P1 / RFU, AEBP2 / Fold change vs veh, AEBP2 / RFU, SNHG1 /// SNORD22 /// SNORD25 /// SNORD26 /// SNORD27 /// SNORD28 /// SNORD29 /// SNORD31 / Fold change vs veh, SNHG1 /// SNORD22 /// SNORD25 /// SNORD26 /// SNORD27 /// SNORD28 /// SNORD29 /// SNORD31 / Fold change (Aza/veh), C12orf56 (ProbeSet 11735607_a_at) / Fold change (ACY-1035/veh), C12orf56 (ProbeSet 11735607_a_at) / Fold change (Aza/veh), FGFR1OP (ProbeSet 11751329_s_at) / Fold change (ACY-1035/veh), FGFR1OP (ProbeSet 11751329_s_at) / Fold change (Aza/veh), VPS36 (ProbeSet 11739960_a_at) / Fold change (ACY-1035/veh), VPS36 (ProbeSet 11739960_a_at) / RFU SYPL1 (11715823_x_at) / Fold change /veh SYPL1 (11715823_x_at) / RFU IGFBP7 (11715501_s_at) / Fold change /veh IGFBP7 (11715501_s_at) / RFU REEP3 (11722064_at) / Fold change /veh REEP3 (11722064_at) / RFU IGLL1 (11728026_x_at) / Fold change /veh IGLL1 (11728026_x_at): dose or concentration left out as unconfirmed
Settings: MV-4-11 cells, 48 hours

In the case of `Nc1ncn([C@@H]2O[C@H](CO)[C@@H](O)[C@H]2O)c(=O)n1` [azacitidine], the “RFU TMEM200A (11744735_a_at)” value is reported as 6.62 RFU.

Source: PMC5218480 (PLoS ONE, 2017)
